Reference: ChEMBL document CHEMBL3991601, “The target landscape of clinical kinase drugs” (Science, 2017)
Activity calls are given as the source filed them. For most assays here, no stated cut-off is given here; in the data, actives have a measured Kd and inactives only a lower limit.

Key:
[1] = target: Cyclin-dependent kinase 12 (Homo sapiens, UniProt Q9NYV4)
[2] = target: T1, Cyclin-G-associated kinase (Homo sapiens, UniProt O14976)
T1 sequence (O14976 whole entry): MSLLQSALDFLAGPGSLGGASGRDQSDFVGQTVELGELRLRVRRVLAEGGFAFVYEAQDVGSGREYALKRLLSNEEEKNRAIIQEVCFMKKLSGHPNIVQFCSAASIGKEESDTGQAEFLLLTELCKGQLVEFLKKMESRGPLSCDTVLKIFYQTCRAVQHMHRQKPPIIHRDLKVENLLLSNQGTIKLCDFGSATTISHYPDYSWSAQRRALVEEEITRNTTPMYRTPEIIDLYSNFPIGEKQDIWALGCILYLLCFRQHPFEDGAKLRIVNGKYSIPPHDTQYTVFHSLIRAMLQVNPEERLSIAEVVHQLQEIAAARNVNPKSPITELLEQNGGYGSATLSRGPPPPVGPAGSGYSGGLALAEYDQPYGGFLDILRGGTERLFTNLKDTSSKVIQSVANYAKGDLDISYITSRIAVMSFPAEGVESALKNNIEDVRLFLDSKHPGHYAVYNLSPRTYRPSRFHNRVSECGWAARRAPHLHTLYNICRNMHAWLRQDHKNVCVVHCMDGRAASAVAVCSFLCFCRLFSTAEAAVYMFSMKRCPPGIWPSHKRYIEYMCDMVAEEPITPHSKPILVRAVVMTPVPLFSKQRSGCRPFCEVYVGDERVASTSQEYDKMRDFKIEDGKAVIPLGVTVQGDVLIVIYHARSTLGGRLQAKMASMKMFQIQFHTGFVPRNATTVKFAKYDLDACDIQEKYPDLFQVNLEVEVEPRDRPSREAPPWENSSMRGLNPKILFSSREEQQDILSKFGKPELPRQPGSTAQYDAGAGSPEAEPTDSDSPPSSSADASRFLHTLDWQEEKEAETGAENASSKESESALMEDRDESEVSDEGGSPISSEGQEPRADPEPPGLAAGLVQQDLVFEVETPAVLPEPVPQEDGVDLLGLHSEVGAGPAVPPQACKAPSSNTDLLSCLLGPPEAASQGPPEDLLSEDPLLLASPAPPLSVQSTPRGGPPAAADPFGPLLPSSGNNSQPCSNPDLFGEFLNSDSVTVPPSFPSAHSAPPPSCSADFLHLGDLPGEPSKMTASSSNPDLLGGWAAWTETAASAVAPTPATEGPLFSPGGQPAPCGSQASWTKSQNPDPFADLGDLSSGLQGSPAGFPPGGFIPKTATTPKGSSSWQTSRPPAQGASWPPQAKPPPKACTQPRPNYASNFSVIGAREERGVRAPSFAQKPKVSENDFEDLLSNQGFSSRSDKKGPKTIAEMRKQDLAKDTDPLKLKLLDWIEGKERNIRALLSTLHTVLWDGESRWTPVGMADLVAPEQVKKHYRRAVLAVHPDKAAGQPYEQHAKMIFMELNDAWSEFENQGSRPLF

[3] = target: Mitogen-activated protein kinase kinase kinase kinase 5 (Homo sapiens, UniProt Q9Y4K4)
Mitogen-activated protein kinase kinase kinase kinase 5, sequence (Q9Y4K4 whole entry): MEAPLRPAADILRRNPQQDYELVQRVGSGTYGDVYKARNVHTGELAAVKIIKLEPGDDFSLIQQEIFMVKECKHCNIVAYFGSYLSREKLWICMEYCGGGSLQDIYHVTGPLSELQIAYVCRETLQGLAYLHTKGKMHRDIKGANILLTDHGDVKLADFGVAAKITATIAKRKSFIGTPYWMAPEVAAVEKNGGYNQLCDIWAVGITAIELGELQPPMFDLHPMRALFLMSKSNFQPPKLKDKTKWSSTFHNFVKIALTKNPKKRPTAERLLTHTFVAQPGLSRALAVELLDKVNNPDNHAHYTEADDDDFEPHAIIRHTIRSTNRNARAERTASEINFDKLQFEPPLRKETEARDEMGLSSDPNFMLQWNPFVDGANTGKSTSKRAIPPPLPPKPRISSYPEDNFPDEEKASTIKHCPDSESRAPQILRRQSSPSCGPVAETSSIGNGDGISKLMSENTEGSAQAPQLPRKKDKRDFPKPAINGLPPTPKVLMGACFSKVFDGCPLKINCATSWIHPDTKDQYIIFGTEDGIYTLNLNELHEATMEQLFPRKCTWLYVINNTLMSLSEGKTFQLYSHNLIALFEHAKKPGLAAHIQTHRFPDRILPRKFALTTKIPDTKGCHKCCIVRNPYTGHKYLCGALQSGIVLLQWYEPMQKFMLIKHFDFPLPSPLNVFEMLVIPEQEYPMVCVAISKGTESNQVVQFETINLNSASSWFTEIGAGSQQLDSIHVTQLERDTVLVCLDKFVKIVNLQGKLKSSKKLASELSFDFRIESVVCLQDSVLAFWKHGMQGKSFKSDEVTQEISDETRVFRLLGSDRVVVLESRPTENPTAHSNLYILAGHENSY

[4] = target: T2, Phosphatidylinositol 5-phosphate 4-kinase type-2 gamma (Homo sapiens, UniProt Q8TBX8)
T2 sequence (Q8TBX8 whole entry): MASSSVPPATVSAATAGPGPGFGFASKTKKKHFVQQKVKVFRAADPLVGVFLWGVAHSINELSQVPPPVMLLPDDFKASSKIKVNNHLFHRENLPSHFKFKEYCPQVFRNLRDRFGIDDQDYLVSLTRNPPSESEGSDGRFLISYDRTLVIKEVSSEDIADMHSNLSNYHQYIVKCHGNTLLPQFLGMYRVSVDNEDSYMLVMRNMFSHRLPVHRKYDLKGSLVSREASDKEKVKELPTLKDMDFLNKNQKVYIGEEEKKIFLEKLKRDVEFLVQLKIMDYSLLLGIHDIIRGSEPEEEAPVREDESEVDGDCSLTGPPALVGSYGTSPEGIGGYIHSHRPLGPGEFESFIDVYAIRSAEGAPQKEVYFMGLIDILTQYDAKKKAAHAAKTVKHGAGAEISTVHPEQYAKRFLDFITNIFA

[5] = target: Protein-tyrosine kinase 6 (Homo sapiens, UniProt Q13882)
Protein-tyrosine kinase 6, sequence (Q13882 whole entry): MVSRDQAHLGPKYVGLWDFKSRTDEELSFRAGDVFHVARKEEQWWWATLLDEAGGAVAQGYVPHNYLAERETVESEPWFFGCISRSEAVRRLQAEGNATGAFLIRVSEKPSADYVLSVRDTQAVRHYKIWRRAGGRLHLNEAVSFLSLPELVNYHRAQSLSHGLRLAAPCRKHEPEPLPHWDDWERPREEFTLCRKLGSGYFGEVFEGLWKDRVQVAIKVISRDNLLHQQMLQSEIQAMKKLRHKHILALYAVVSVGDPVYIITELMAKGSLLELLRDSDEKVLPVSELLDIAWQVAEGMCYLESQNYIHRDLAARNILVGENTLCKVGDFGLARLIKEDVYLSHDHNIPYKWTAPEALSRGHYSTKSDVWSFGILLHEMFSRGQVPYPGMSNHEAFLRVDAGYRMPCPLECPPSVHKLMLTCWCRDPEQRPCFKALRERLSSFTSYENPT

[6] = target: GTP-binding nuclear protein Ran (Homo sapiens, UniProt P62826)
[7] = target: T3, Septin-9 (Homo sapiens, UniProt Q9UHD8)
T3 sequence (Q9UHD8 whole entry): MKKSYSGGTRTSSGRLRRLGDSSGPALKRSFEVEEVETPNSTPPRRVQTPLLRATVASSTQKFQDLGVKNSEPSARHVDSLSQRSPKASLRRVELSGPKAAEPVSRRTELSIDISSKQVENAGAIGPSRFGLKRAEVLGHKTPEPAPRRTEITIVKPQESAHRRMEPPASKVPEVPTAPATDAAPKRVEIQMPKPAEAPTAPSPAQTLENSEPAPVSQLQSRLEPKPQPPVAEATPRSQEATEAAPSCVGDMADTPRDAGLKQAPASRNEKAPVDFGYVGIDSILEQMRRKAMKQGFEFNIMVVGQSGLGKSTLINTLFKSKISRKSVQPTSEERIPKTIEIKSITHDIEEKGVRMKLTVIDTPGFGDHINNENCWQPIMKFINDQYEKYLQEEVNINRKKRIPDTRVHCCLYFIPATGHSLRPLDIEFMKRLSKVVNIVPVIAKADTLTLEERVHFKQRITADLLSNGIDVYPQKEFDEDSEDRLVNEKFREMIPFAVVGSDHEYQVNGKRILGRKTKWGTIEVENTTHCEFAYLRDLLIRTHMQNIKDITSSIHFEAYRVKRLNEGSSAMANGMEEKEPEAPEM

[8] = target: T4, ADP/ATP translocase 2 (Homo sapiens, UniProt P05141)
T4 sequence (P05141 whole entry): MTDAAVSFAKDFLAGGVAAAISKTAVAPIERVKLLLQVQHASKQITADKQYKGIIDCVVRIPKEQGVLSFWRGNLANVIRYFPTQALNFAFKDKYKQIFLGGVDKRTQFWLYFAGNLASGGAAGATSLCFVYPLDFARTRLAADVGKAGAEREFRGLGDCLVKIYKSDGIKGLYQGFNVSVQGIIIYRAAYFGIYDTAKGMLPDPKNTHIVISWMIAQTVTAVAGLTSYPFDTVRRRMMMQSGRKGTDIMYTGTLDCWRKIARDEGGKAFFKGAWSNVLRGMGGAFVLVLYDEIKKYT

Cyclin-dependent kinase 12, sequence (Q9NYV4 whole entry): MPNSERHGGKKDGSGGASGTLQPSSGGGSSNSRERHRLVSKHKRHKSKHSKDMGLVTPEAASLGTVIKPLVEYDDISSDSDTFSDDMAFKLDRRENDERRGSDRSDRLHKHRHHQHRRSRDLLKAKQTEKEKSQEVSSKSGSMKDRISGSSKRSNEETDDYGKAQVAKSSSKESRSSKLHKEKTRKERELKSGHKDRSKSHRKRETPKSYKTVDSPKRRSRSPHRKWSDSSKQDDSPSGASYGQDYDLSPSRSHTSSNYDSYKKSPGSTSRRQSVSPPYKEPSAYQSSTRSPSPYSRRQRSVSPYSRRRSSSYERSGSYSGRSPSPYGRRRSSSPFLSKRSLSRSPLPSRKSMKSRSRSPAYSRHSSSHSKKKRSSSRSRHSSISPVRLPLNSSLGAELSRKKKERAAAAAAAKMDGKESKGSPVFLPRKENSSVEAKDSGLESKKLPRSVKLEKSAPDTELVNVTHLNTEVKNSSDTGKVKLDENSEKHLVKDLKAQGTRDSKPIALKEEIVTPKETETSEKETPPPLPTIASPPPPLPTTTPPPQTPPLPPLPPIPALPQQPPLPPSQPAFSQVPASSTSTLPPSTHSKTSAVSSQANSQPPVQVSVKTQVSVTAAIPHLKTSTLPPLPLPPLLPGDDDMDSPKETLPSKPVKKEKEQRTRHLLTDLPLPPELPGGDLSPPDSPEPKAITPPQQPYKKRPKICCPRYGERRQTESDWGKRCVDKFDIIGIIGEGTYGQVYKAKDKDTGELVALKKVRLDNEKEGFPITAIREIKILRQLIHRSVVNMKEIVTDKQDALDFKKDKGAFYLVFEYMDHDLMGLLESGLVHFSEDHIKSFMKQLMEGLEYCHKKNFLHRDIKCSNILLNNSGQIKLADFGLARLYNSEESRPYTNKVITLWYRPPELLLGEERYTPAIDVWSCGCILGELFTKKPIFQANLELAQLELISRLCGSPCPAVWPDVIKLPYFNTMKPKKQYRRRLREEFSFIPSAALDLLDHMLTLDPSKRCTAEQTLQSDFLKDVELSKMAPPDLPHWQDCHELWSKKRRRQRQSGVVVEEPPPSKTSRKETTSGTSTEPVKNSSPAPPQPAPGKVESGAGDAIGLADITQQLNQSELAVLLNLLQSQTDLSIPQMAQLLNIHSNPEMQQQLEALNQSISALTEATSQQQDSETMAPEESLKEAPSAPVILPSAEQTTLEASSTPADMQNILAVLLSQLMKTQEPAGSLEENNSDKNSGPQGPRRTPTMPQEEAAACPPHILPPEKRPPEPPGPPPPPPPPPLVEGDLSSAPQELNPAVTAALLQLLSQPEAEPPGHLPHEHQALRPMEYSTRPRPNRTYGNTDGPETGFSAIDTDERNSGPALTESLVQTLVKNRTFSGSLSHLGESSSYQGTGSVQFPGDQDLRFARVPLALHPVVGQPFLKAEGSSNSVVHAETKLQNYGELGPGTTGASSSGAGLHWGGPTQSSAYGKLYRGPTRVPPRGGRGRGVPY

Kd [1]	Kd [2]	Kd [3]	Kd [4]	Kd [5]	Kd [6]	Kd [7]	Kd [8]	Structure (SMILES)
> 30 µM (inactive)	> 30 µM (inactive)	50.2 µM (active)	> 30 µM (inactive)	> 30 µM (inactive)	> 30 µM (inactive)	> 30 µM (inactive)	> 30 µM (inactive)	CCN1CCN(Cc2ccc(-c3cc4c(N[C@H](C)c5ccccc5)ncnc4[nH]3)cc2)CC1 [AEE-788]
> 30 µM (inactive)	> 30 µM (inactive)	> 30 µM (inactive)	> 30 µM (inactive)	> 30 µM (inactive)	> 30 µM (inactive)	> 30 µM (inactive)	> 30 µM (inactive)	CNS(=O)(=O)Nc1nccc(Cc2c(C)c3ccc(Oc4ncccn4)cc3oc2=O)c1F [AVUTOMETINIB]
> 30 µM (inactive)	> 30 µM (inactive)	> 30 µM (inactive)	> 30 µM (inactive)	0.841 µM (active)	> 30 µM (inactive)	> 30 µM (inactive)	> 30 µM (inactive)	O=C(O)[C@]1(Cc2cccc(Nc3nccs3)n2)CC[C@@H](Oc2cccc(Cl)c2F)CC1 [MK-5108]
> 30 µM (inactive)	> 30 µM (inactive)	> 30 µM (inactive)	> 30 µM (inactive)	> 30 µM (inactive)	> 30 µM (inactive)	> 30 µM (inactive)	> 30 µM (inactive)	CC(=O)Nc1cccc(-n2c(=O)n(C3CC3)c(=O)c3c(Nc4ccc(I)cc4F)n(C)c(=O)c(C)c32)c1 [TRAMETINIB]
> 30 µM (inactive)	> 30 µM (inactive)	> 30 µM (inactive)	> 30 µM (inactive)	> 30 µM (inactive)	> 30 µM (inactive)	> 30 µM (inactive)	> 30 µM (inactive)	CO[C@H]1C[C@@H]2CC[C@@H](C)[C@@](O)(O2)C(=O)C(=O)N2CCCC[C@H]2C(=O)O[C@H]([C@H](C)C[C@@H]2CC[C@@H](OCCO)[C@H](OC)C2)CC(=O)[C@H](C)/C=C(\C)[C@@H](O)[C@@H](OC)C(=O)[C@H](C)C[C@H](C)/C=C/C=C/C=C/1C [EVEROLIMUS]
> 30 µM (inactive)	> 30 µM (inactive)	> 30 µM (inactive)	> 30 µM (inactive)	> 30 µM (inactive)	> 30 µM (inactive)	> 30 µM (inactive)	> 30 µM (inactive)	C[C@@H](Nc1cc(F)cc(F)c1)c1cc(C(=O)N(C)C)cc2c(=O)cc(N3CCOCC3)oc12 [AZD-8186]
> 30 µM (inactive)	> 30 µM (inactive)	> 30 µM (inactive)	> 30 µM (inactive)	> 30 µM (inactive)	> 30 µM (inactive)	> 30 µM (inactive)	> 30 µM (inactive)	CN1N=C(N)c2cn([C@@H]3O[C@H](COP(=O)(O)O)[C@@H](O)[C@H]3O)c3ncnc1c23 [TRICIRIBINE PHOSPHATE]
> 30 µM (inactive)	> 30 µM (inactive)	> 30 µM (inactive)	> 30 µM (inactive)	> 30 µM (inactive)	> 30 µM (inactive)	> 30 µM (inactive)	> 30 µM (inactive)	OCCn1cc(-c2cnc3nnn(Cc4ccc5ncccc5c4)c3n2)cn1 [PF-04217903]
> 30 µM (inactive)	> 30 µM (inactive)	> 30 µM (inactive)	> 30 µM (inactive)	> 30 µM (inactive)	> 30 µM (inactive)	> 30 µM (inactive)	> 30 µM (inactive)	O=c1sn(-c2cccc3ccccc23)c(=O)n1Cc1ccccc1 [TIDEGLUSIB]
> 30 µM (inactive)	> 30 µM (inactive)	> 30 µM (inactive)	> 30 µM (inactive)	> 30 µM (inactive)	> 30 µM (inactive)	> 30 µM (inactive)	> 30 µM (inactive)	CC(C)Nc1cc(-c2c[nH]c(C(=O)N[C@H](CO)c3cccc(Cl)c3)c2)c(Cl)cn1 [ULIXERTINIB]
> 30 µM (inactive)	> 30 µM (inactive)	> 30 µM (inactive)	0.32 µM (active)	> 30 µM (inactive)	> 30 µM (inactive)	> 30 µM (inactive)	> 30 µM (inactive)	Cn1cc(-c2ccc3nnc(C(F)(F)c4ccc5ncccc5c4)n3n2)cn1 [JNJ-38877605]
> 30 µM (inactive)	> 30 µM (inactive)	> 30 µM (inactive)	> 30 µM (inactive)	> 30 µM (inactive)	> 30 µM (inactive)	> 30 µM (inactive)	> 30 µM (inactive)	C[C@@H]1CN(Cc2ccc(F)cc2)[C@@H](C)CN1C(=O)c1cc2c(C(=O)C(=O)N(C)C)cn(C)c2cc1Cl [TALMAPIMOD]
> 30 µM (inactive)	0.674 µM (active)	> 30 µM (inactive)	> 30 µM (inactive)	> 30 µM (inactive)	> 30 µM (inactive)	> 30 µM (inactive)	> 30 µM (inactive)	C1=C/COCc2cc(ccc2OCCN2CCCC2)Nc2nccc(n2)-c2cccc(c2)COC/1 [PACRITINIB]
> 30 µM (inactive)	2.82 µM (active)	> 30 µM (inactive)	> 30 µM (inactive)	0.061 µM (active)	> 30 µM (inactive)	> 30 µM (inactive)	> 30 µM (inactive)	COc1cc(N2CCC(N3CCN(C)CC3)CC2)ccc1Nc1ncnc(Nc2ccccc2S(=O)(=O)C(C)C)n1 [ASP-3026]

Structure (SMILES)	Kd [1]	Kd [2]	Kd [3]	Kd [4]	Kd [5]	Kd [6]	Kd [7]	Kd [8]
C=CC(=O)N1CCC(Oc2cc3c(Nc4ccc(Cl)c(Cl)c4F)ncnc3cc2OC)CC1 [POZIOTINIB]	> 30 µM (inactive)	> 30 µM (inactive)	> 30 µM (inactive)	> 30 µM (inactive)	> 30 µM (inactive)	> 30 µM (inactive)	> 30 µM (inactive)	> 30 µM (inactive)
CN1CC[C@@H](c2c(O)cc(O)c3c(=O)cc(-c4ccccc4Cl)oc23)[C@@H]1CO	3.16 µM (active)	> 30 µM (inactive)	> 30 µM (inactive)	> 30 µM (inactive)	> 30 µM (inactive)	> 30 µM (inactive)	> 30 µM (inactive)	> 30 µM (inactive)
